US20230330004A1, “COMPOSITION COMPRISING GINSENG EXTRACT FOR REFORMING SKIN MICROBIOTA” (KOREA GINSENG CORP., priority 2020, published 2023)

Columns and labels:
[1] = tested on: Staphylococcus aureus (Strain number 39149, Korean Collection for Type Cultures); test: Growth of harmful skin microbes, absorbance at 600 nm (Experimental Example 2); type: cell-based; settings: incubated 24 hours in shaking incubator
Experimental: (§1) To compare the compositions of Example and Comparative Examples in terms of the increase in growth of beneficial skin microbes versus harmful skin microbes, the growth of each microbe was measured by the same method as described in Experimental Example 1. Specifically, using Staphylococcus epidermidis as beneficial skin microbes, and Staphylococcus aureus (Strain number 39149, Korean Collection for Type Cultures) as harmful skin microbes, samples were inoculated respectively and incubated for 24 hours in a shaking incubator. Solutions with the strains grown therein were each collected and centrifuged, and after removing the supernatant therefrom, an equivalent amount of a saline solution was added to prepare a bacterial solution.

[2] = tested on: Staphylococcus epidermidis; test: Growth of beneficial skin microbes, absorbance at 600 nm (Experimental Example 2); type: cell-based; settings: for Effect of selectively promoting the growth of beneficial microbes rather than harmful microbes (in words): S. epidermidis versus S. aureus, from Table 2; for Effect of promoting the growth of beneficial microbes (in words): S. epidermidis, compared to the composition of the present invention; for OD600 (Beneficial microbes): Staphylococcus epidermidis, incubated 24 hours in shaking incubator, absorbance at 600 nm; for Increase in beneficial microbes versus harmful microbes: ratio of OD600 S. epidermidis / S. aureus, 24 hours
Experimental: as §1

Compound | OD600 (Harmful microbes) [1] | Effect of selectively promoting the growth of beneficial microbes rather than harmful microbes (in words) [2] | Effect of promoting the growth of beneficial microbes (in words) [2] | OD600 (Beneficial microbes) [2] | Increase in beneficial microbes versus harmful microbes [2]
3-Sialyllactose [Comparative Example 2] | 0.077 | low | negligible | 0.049 | ×0.636
CC(=O)N[C@H]1[C@H]([C@H](O)[C@H](O)CO)O[C@@](OC[C@H]2O[C@@H](O[C@H]3[C@H](O)[C@@H](O)C(O)O[C@@H]3CO)[C@H](O)[C@@H](O)[C@H]2O)(C(=O)O)C[C@@H]1O (stereo partly shown) [Comparative Example 3, 6-Sialyllactose] | 0.065 | low | negligible | 0.047 | ×0.723
